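Cultured in 96-well plates, cells were exposed to test compound for 48 hours across five concentrations. GI50 = concentration required for 50% inhibition of growth. TGI is the concentration that stops growth completely.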 Where only a bound is given, the exact number is not on record here.

Among the test systems are 786-0 renal; SF-539 CNS; T-47D breast; BT-549 breast; SNB-19 CNS; ACHN renal; K-562 leukemia; MALME-3M melanoma.
Common to all, as to experiment: NCI anticancer screen, dose series, 48 h

Turning to `C=CC(=O)Nc1cccc(Oc2nc(Nc3ccc(N4CCN(C)CC4)cc3OC)ncc2Cl)c1`, the GI50 was 1.47 µM with 786-0 renal; 1.98 µM in the test on SF-539 CNS; 2.87 µM in the test on T-47D breast; 1.99 µM with BT-549 breast; 3.63 µM in the test with SNB-19 CNS; 0.421 µM in the test with ACHN renal. The TGI in the test with 786-0 renal stood at 2.94 µM; in the test on SF-539 CNS, 3.72 µM; in the test with T-47D breast it was 15.5 µM; in the test on BT-549 breast, 4.58 µM; in the test on SNB-19 CNS it was 16.7 µM; in the test with ACHN renal, 3.14 µM.

As to `NCCSC(c1ccccc1)(c1ccccc1)c1ccccc1`, the GI50 in the test with K-562 leukemia was 0.322 µM; with 786-0 renal, 1.22 µM; in the test on SF-539 CNS it was 1.36 µM; in the test on T-47D breast it was 2.62 µM; in the test with BT-549 breast, 3.51 µM; in the test on SNB-19 CNS, 5.36 µM. For the same molecule, the GI50 with ACHN renal is 1.48 µM. Further, the TGI in the test with K-562 leukemia stood at 1.61 µM; with 786-0 renal, 12.1 µM; with SF-539 CNS, 3.21 µM; in the test with T-47D breast it was 8.42 µM; in the test with BT-549 breast, 14.2 µM; in the test on SNB-19 CNS, 20.1 µM. In the test with ACHN renal, this molecule gave a TGI of 11.2 µM.

`COc1cc(CCC(=O)NC[C@@H](O)c2ccccc2)ccc1O`: the GI50 was 56.8 µM in the test on K-562 leukemia; > 100 µM with 786-0 renal; > 100 µM in the test on MALME-3M melanoma; > 100 µM with SF-539 CNS; > 100 µM in the test on T-47D breast; > 100 µM with BT-549 breast. For the same molecule, the GI50 in the test on ACHN renal was > 100 µM. In addition, the TGI in the test on K-562 leukemia, with 786-0 renal, with MALME-3M melanoma, with SF-539 CNS, in the test on T-47D breast and in the test on BT-549 breast was > 100 µM in each case. Also, the TGI in the test with ACHN renal was > 100 µM.

With `Nc1ncn([C@H]2C[C@H](OP(=O)(O)OC[C@H]3O[C@@H](n4cnc5c(=O)[nH]c(N)nc54)C[C@@H]3O)[C@@H](CO)O2)c(=O)n1`, the GI50 in the test with 786-0 renal was 71.8 µM; with MALME-3M melanoma it was > 100 µM; in the test with SF-539 CNS, > 100 µM; in the test on T-47D breast, > 100 µM; with BT-549 breast, > 100 µM; in the test on SNB-19 CNS, > 100 µM. Further, the GI50 in the test with ACHN renal was 38.4 µM. The TGI in the test on 786-0 renal, in the test on MALME-3M melanoma, in the test with SF-539 CNS, with T-47D breast, in the test on BT-549 breast and in the test with SNB-19 CNS was > 100 µM in each case. The TGI with ACHN renal is > 100 µM.

Consider `O=C(c1ccccc1)c1nc2ccc(C(F)(F)F)cc2nc1N1CCN(c2ccccc2)CC1`, for which the GI50 in the test with 786-0 renal was 30.7 µM; in the test on MALME-3M melanoma, 48.2 µM; in the test with SF-539 CNS it was 52.9 µM; in the test on T-47D breast, 21.8 µM; with BT-549 breast, 32 µM; with SNB-19 CNS, 71.5 µM. The GI50 in the test with ACHN renal was 21.6 µM. For the same molecule, the TGI in the test on 786-0 renal was 76.1 µM; with MALME-3M melanoma, > 100 µM; in the test with SF-539 CNS, > 100 µM; in the test on T-47D breast it was 48.9 µM; in the test on BT-549 breast, 84.5 µM; with SNB-19 CNS, > 100 µM. The molecule also returned a TGI in the test with ACHN renal of 53.7 µM.

For `CCCCCCCCCCCCCCCCN(CC)CC`, the GI50 with 786-0 renal is 1.69 µM; in the test on MALME-3M melanoma it was 1.92 µM; in the test with SF-539 CNS, 1.67 µM; in the test with T-47D breast, 3.39 µM; with BT-549 breast, 1.87 µM; with SNB-19 CNS, 3.29 µM. Besides, the GI50 in the test with ACHN renal is 2.1 µM. Moreover, the TGI in the test with 786-0 renal was 3.1 µM; in the test with MALME-3M melanoma, 4.35 µM; in the test on SF-539 CNS, 3.06 µM; with T-47D breast, 17 µM; with BT-549 breast it was 3.89 µM; with SNB-19 CNS, 13.9 µM. The molecule further yielded a TGI in the test on ACHN renal of 4.45 µM.

As to `COc1ccc(NC(=O)c2ccc(NC3=C(Cl)C(=O)N(Cc4ccccc4)C3=O)cc2)c(OC)c1`, the GI50 with K-562 leukemia is 8.18 µM; in the test with 786-0 renal it was 23.3 µM; in the test with SF-539 CNS it was 28.2 µM; with T-47D breast, 38.9 µM; in the test on BT-549 breast, 13.1 µM; with SNB-19 CNS it was 57.4 µM. For the same molecule, the GI50 in the test on ACHN renal was 36 µM. Besides, the TGI was 43 µM in the test with K-562 leukemia; > 100 µM in the test with 786-0 renal; 67.1 µM with SF-539 CNS; > 100 µM in the test on T-47D breast; 45 µM with BT-549 breast; > 100 µM with SNB-19 CNS. The TGI with ACHN renal is > 100 µM.

On to `O=c1cccc2n1CC1CNC[C@H]2C1`, for which the TGI with K-562 leukemia, in the test on 786-0 renal, in the test on MALME-3M melanoma, with T-47D breast, in the test on BT-549 breast and in the test on SNB-19 CNS was > 100 µM throughout. Also, the TGI with ACHN renal was > 100 µM.

Turning to `Cn1c(-c2c(N)n(Cc3ccc(F)cc3)c3nc(C#N)c(C#N)nc23)nc2ccccc21`, the GI50 in the test on K-562 leukemia was 5.19 µM; with 786-0 renal, 0.918 µM; in the test with SF-539 CNS it was 13.2 µM; in the test with T-47D breast it was 1.08 µM; in the test with BT-549 breast, 2.79 µM; with SNB-19 CNS, 12 µM. Besides, the GI50 in the test with ACHN renal was 0.829 µM. Besides, the TGI in the test on K-562 leukemia is > 50 µM; with 786-0 renal, 3.59 µM; with SF-539 CNS it was > 50 µM; with T-47D breast it was 4.61 µM; with BT-549 breast, 18.2 µM; in the test on SNB-19 CNS, > 50 µM. The molecule further showed a TGI with ACHN renal of 2.43 µM.

For `[Cu+2].[NH-]C(CC(=O)O)C(=O)O.[NH-]C(CC(=O)O)C(=O)O` (stereo unspecified), the GI50 was > 100 µM in the test on K-562 leukemia; > 100 µM in the test with 786-0 renal; > 100 µM in the test with MALME-3M melanoma; > 100 µM in the test with T-47D breast; > 100 µM with BT-549 breast; 49.5 µM with SNB-19 CNS. Besides, the GI50 with ACHN renal is > 100 µM. The TGI with K-562 leukemia, with 786-0 renal, in the test on MALME-3M melanoma, with T-47D breast, with BT-549 breast and in the test with SNB-19 CNS was > 100 µM each time. In addition, the TGI in the test on ACHN renal was > 100 µM.

In the case of `N#Cc1c(N/N=C\c2ccc(Cl)cc2)nc(N)nc1N1CCOCC1`, the GI50 was 13 µM in the test with K-562 leukemia; 67.1 µM with 786-0 renal; 75.1 µM with SF-539 CNS; > 100 µM in the test with T-47D breast; > 100 µM in the test with BT-549 breast; > 100 µM with SNB-19 CNS. Also, in the test on ACHN renal, the GI50 was 23.1 µM. Also, the TGI with K-562 leukemia was 32.3 µM; in the test on 786-0 renal, > 100 µM; with SF-539 CNS it was > 100 µM; with T-47D breast it was > 100 µM; with BT-549 breast, > 100 µM; with SNB-19 CNS it was > 100 µM. The molecule further displayed a TGI with ACHN renal of 92.6 µM.

For the molecule `COc1ccc2nc3cccc([N+](=O)[O-])c3c(NC(C)CN(C)C)c2c1` (stereo unspecified), the GI50 with K-562 leukemia is 1.56 µM; in the test on 786-0 renal, 2.22 µM; with SF-539 CNS it was 2.66 µM; in the test with T-47D breast, 5.52 µM; with BT-549 breast it was 2.86 µM; with SNB-19 CNS it was 2.63 µM. Further, the GI50 in the test with ACHN renal was 1.58 µM. For the same molecule, the TGI in the test with K-562 leukemia was found to be 4.03 µM; in the test with 786-0 renal, 7.12 µM; in the test on SF-539 CNS it was 6.46 µM; with T-47D breast it was 36 µM; in the test with BT-549 breast, 6.74 µM; with SNB-19 CNS it was 7.91 µM. In the test with ACHN renal, the TGI came out at 7.23 µM.

On to `COc1cc2nc3cc([N+](=O)[O-])ccc3c(NCCNCC(C)O)c2cc1OC` (stereo unspecified), for which the GI50 in the test on 786-0 renal is 1.23 µM; in the test on MALME-3M melanoma it was 0.785 µM; in the test on SF-539 CNS, 0.693 µM; with T-47D breast, 0.365 µM; with BT-549 breast, 1.75 µM; in the test on SNB-19 CNS it was 0.436 µM. For the same molecule, in the test on ACHN renal, the GI50 is 0.614 µM. In addition, the TGI in the test with 786-0 renal is 3.6 µM; with MALME-3M melanoma, 2.25 µM; in the test on SF-539 CNS, 2.47 µM; in the test on T-47D breast, 2.33 µM; in the test on BT-549 breast it was 3.9 µM; in the test with SNB-19 CNS, 2.74 µM. This molecule came in with a TGI with ACHN renal of 3.93 µM.

In the case of `C=C1C(=O)C2=CC1CCC(=O)C1(C)CCC(OC(C)=O)C(C)(C)C1CC2O` (stereo unspecified), the TGI is > 37.7 µM in the test on 786-0 renal; 18.1 µM with MALME-3M melanoma; 5.19 µM in the test on SF-539 CNS; 21.8 µM in the test on T-47D breast; 9.33 µM in the test on BT-549 breast; 15 µM in the test with SNB-19 CNS. Besides, the TGI with ACHN renal was 6.82 µM.

As to `CN1C(=O)C2(c3ccccc31)C1CC3C(CO1)C1C2C3(CO)CN1C#N` (stereo unspecified), the TGI with K-562 leukemia, in the test with 786-0 renal, in the test with MALME-3M melanoma, with T-47D breast, in the test on BT-549 breast and in the test on SNB-19 CNS was > 100 µM in each case. In the test with ACHN renal, the TGI is > 100 µM.

For `CN(C)CCNC(=O)c1ccc2oc3cc4ccccc4c(=O)n3c2c1`, the GI50 in the test on K-562 leukemia is 64.1 µM; in the test with 786-0 renal, 71.6 µM; with SF-539 CNS, 22 µM; in the test on T-47D breast it was 34.6 µM; with BT-549 breast it was 27.4 µM; in the test on SNB-19 CNS it was 40.9 µM. For the same molecule, the GI50 with ACHN renal is 15.1 µM. For the same molecule, the TGI in the test on K-562 leukemia was > 100 µM; in the test on 786-0 renal it was > 100 µM; in the test on SF-539 CNS, 47.3 µM; in the test on T-47D breast, > 100 µM; with BT-549 breast it was 66.2 µM; in the test with SNB-19 CNS, > 100 µM. The TGI in the test with ACHN renal is 37.6 µM.

The values are drawn from PubChem BioAssay (NCI).
